Assay results as given in US20080021026A1, “BENZOTHIOPHENE INHIBITORS OF RHO KINASE” (priority 2006, published 2008).

Biological target: T1, recombinant N-terminal GST-tagged human Rho kinase 2 (ROCK2, amino acids 1-552) (Homo sapiens, UniProt O75116)
T1 construct: ROCK2, amino acids 1-552; purchased Invitrogen Inc. PV3759
Experiment: In vitro Rho kinase assay (luciferase-based ATP consumption), ROCK2
Assay type: biochemical
Details: recombinant GST-tagged human ROCK2, luciferase-based ATP consumption; read-out: ROCK2 IC50
In short: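 GST-ROCK2 (aa 1-552, 0.82 μg/ml) with 100 μg/ml S6 peptide and 3 µM ATP in Tris pH 7.5 buffer with MgCl2/CaCl2/EGTA/BSA, compound added just after reaction start, 2 h at 30 °C. Remaining ATP read by luciferase luminescence. Efficacy expressed as percentage of H-1152P positive control.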

T1 sequence (O75116 1-552): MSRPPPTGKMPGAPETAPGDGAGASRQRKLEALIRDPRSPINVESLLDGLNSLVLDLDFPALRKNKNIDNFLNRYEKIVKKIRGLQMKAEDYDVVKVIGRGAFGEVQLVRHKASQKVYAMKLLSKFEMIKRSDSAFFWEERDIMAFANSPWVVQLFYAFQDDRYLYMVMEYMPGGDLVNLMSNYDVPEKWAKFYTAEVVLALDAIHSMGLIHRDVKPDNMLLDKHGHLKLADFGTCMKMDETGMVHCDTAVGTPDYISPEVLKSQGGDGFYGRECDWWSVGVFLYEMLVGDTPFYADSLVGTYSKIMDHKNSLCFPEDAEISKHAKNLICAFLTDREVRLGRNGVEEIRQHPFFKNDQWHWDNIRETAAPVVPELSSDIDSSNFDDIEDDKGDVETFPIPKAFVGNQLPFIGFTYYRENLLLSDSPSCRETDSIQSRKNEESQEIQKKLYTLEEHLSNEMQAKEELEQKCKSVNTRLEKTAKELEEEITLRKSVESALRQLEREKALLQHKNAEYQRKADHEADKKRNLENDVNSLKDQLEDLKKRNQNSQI

Row | Structure (SMILES) | IC50
1 | Cc1ccc(N2CCN(C(=O)c3ccc4sc(-c5ccnc(N)n5)c(C)c4c3)CC2)c(C)c1 [Example 538, Cc1ccc(N2CCN(CC2)C(═O)c3ccc4sc(c(C)c4c3)-c5ccnc(N)n5)c(C)c1] | > 5 µM
2 | Cc1ccc(C)c(N2CCN(C(=O)c3ccc4sc(-c5ccnc(N)n5)c(C)c4c3)CC2)c1 [Example 539, Cc1ccc(C)c(c1)N2CCN(CC2)C(═O)c3ccc4sc(c(C)c4c3)-c5ccnc(N)n5] | > 5 µM
3 | COc1ccc(N2CCN(C(=O)c3ccc4sc(-c5ccnc(N)n5)c(C)c4c3)CC2)cc1 [Example 540, COc1ccc(cc1)N2CCN(CC2)C(═O)c3ccc4sc(c(C)c4c3)-c5ccnc(N)n5] | < 5 µM
4 | COc1ccccc1N1CCN(C(=O)c2ccc3sc(-c4ccnc(N)n4)c(C)c3c2)CC1 [Example 541, COc1ccccc1N2CCN(CC2)C(═O)c3ccc4sc(c(C)c4c3)-c5ccnc(N)n5] | > 5 µM
5 | COc1cccc(N2CCN(C(=O)c3ccc4sc(-c5ccnc(N)n5)c(C)c4c3)CC2)c1 [Example 542, COc1cccc(c1)N2CCN(CC2)C(═O)c3ccc4sc(c(C)c4c3)-c5ccnc(N)n5] | > 5 µM
6 | COc1ccc(CCN(C)C(=O)c2ccc3sc(-c4ccnc(N)n4)c(C)c3c2)cc1OC [Example 543, COc1ccc(CCN(C)C(═O)c2ccc3sc(c(C)c3c2)-c4ccnc(N)n4)cc1OC] | > 5 µM
7 | Cc1c(-c2ccnc(N)n2)sc2ccc(C(=O)N3CCN(c4ccc(Cl)cc4)CC3)cc12 [Example 545, Cc1c(sc2ccc(cc12)C(═O)N3CCN(CC3)c4ccc(Cl)cc4)-c5ccnc(N)n5] | > 5 µM
8 | Cc1c(-c2ccnc(N)n2)sc2ccc(C(=O)N3CCN(c4ccc(F)cc4F)CC3)cc12 [Example 546, Cc1c(sc2ccc(cc12)C(═O)N3CCN(CC3)c4ccc(F)cc4F)-c5ccnc(N)n5] | > 5 µM
9 | Cc1c(-c2ccnc(N)n2)sc2ccc(C(=O)N3CCN(CCN4CCOCC4)CC3)cc12 [Example 548, Cc1c(sc2ccc(cc12)C(═O)N3CCN(CCN4CCOCC4)CC3)-c5ccnc(N)n5] | > 5 µM
10 | Cc1c(-c2ccnc(N)n2)sc2ccc(C(=O)N3CCC(N(C)C(=O)OC(C)(C)C)C3)cc12 (stereo not drawn) [Example 549, CN(C1CCN(C1)C(═O)c2ccc3sc(c(C)c3c2)-c4ccnc(N)n4)C(═O)OC(C)(C)C] | > 5 µM
11 | CC(=O)c1ccc(N2CCN(C(=O)c3ccc4sc(-c5ccnc(N)n5)c(C)c4c3)CC2)cc1 [Example 550, CC(═O)c1ccc(cc1)N2CCN(CC2)C(═O)c3ccc4sc(c(C)c4c3)-c5ccnc(N)n5] | > 5 µM

Next, values leading:

Row | IC50 | Structure (SMILES)
12 | < 5 µM | Cc1c(-c2ccnc(N)n2)sc2ccc(C(=O)N3CCN(c4ccc(C#N)cn4)CC3)cc12 [Example 533, Cc1c(sc2ccc(cc12)C(═O)N3CCN(CC3)c4ccc(cn4)C#N)-c5ccnc(N)n5]
13 | > 5 µM | Cc1cccc(N2CCN(C(=O)c3ccc4sc(-c5ccnc(N)n5)c(C)c4c3)CC2)c1C [Example 534, Cc1cccc(N2CCN(CC2)C(═O)c3ccc4sc(c(C)c4c3)-c5ccnc(N)n5)c1C]
14 | > 5 µM | Cc1cccc(N2CCN(C(=O)c3ccc4sc(-c5ccnc(N)n5)c(C)c4c3)CC2C)c1 (stereo not drawn) [Example 535, CC1CN(CCN1c2cccc(C)c2)C(═O)c3ccc4sc(c(C)c4c3)-c5ccnc(N)n5]
15 | < 5 µM | Cc1c(-c2ccnc(N)n2)sc2ccc(C(=O)N3CCN(CCc4ccccc4)CC3)cc12 [Example 536, Cc1c(sc2ccc(cc12)C(═O)N3CCN(CC3)CCc4ccccc4)-c5ccnc(N)n5]
16 | > 5 µM | Cc1ccc(N2CCN(C(=O)c3ccc4sc(-c5ccnc(N)n5)c(C)c4c3)CC2)cc1C [Example 537, Cc1ccc(cc1C)N2CCN(CC2)C(═O)c3ccc4sc(c(C)c4c3)-c5ccnc(N)n5]
17 | < 5 µM | Cc1c(-c2ccnc(N)n2)sc2ccc(C(=O)N3CCN(c4cccc(Cl)c4)CC3)cc12 [Example 544, Cc1c(sc2ccc(cc12)C(═O)N3CCN(CC3)c4cccc(Cl)c4)-c5ccnc(N)n5]
18 | < 5 µM | Cc1c(-c2ccnc(N)n2)sc2ccc(C(=O)N(Cc3cccnc3)Cc3cccnc3)cc12 [Example 547, Cc1c(sc2ccc(cc12)C(═O)N(Cc3cccnc3)Cc4cccnc4)-c5ccnc(N)n5]
